Assay results reported in patent US6403343B2, “Method of producing a taxane-type diterpene and a method of obtaining cultured cells which produce the taxane-type dilterpene at a high rate” (Mitsui Chemicals, Inc., priority 1993, dated 2002).

Columns and labels:
Format in all cases: cell-based
[1] = tested on: cultured cells of Taxus brevifolia NUTT; test: Taxane yield, Taxus brevifolia cultured cells with jasmonic acids added; conditions: 250 μM added on 14th day, 7 more days
Experimental: After completing the culture, the procedure of Example 1 was carried out.
After completing the culture, the procedure of Example 8 was carried out.
After completing the culture, the procedure of Example 15 was carried out.

[2] = tested on: cultured cells of Taxus baccata LINN; test: Taxane-type diterpene yield and cell yield, shake culture of Taxus baccata cells with a jasmonic acid (or jasmone) added
[3] = tested on: cultured cells of Taxus baccata LINN, layer of 1.07 g/ml or less; test: Same culture using cells of the specific gravity layer of 1.07 g/ml or less (Ficoll), jasmonic acids added; conditions: 250 μM added on 14th day, 7 more days; cells of layer of 1.07 g/ml or less
Experimental: (§1) The cells with accelerated growth rate obtained by the method of Example 1 were fractionated firstly by a stainless steel mesh and cell clusters having the size of 250-840 μm were obtained. A medium having a specific gravity of 1.07 (g/ml) was produced by the use of Ficoll and the above-mentioned cells were layered over it and centrifuged at 700 rpm for 6 minutes. The cells were fractionated into two layers according to the difference of the specific gravity. The cells contained in the layer of 1.07 g/ml or less were fractionated and washed with 2% sucrose solution three times or more, to wash off Ficoll. After the washing, 1 g (fresh weight) of the cells was transferred to an Erlenmeyer flask containing 20 ml of liquid Woody Plant Medium and shake culture was carried out at 25° C. for 14 days. […] After completing the culture, the procedure of Example 1 was carried out.
as §1, with “growth rates” for “growth rate”, “Example 8” for “Example 1”, “was inoculated” for “was transferred”
as §1, with “Example 15” for “Example 1”, “was inoculated” for “was transferred”

[4] = tested on: cultured cells of T. media; test: Taxane yield, T. media cultured cells with jasmonic acids added; conditions: 250 μM added on 14th day, 7 more days
Experimental: The procedure of Example 6 was carried out except that cultured cells of T. media were used.
The procedure of Example 13 was carried out except that cultured cells of T. media were used.
The procedure of Example 22 was carried out except that cultured cells of T. media were used.

[5] = 0.01 μM added on 14th day, 7 more days
[6] = 0.1 μM added on 14th day, 7 more days
[7] = 1 μM added on 14th day, 7 more days
[8] = 10 μM added on 14th day, 7 more days
[9] = 25 μM added 4 times every two days from 7th day, total 100 μM
[10] = 100 μM added on 7th day, 14 more days
[11] = 100 μM added on 14th day, 7 more days
[12] = 100 μM added on first day, 20 more days
[13] = 250 μM added on 14th day, 7 more days
[14] = 500 μM added on 14th day, 7 more days
[15] = 1000 μM added on 14th day, 7 more days

COC(=O)C[C@H]1CCC(=O)[C@H]1C/C=C\CCO [methyl tuberonate]
cell yield [1]: 10.0 g/L | yield of baccatin III [1]: 1.4 mg/L | yield of cephalomannine [1]: 0.5 mg/L | yield of taxol [1]: 3.3 mg/L | cell yield [2, 5]: 14.3 g/L | yield of baccatin III [2, 5]: 0.4 mg/L | yield of cephalomannine [2, 5]: 1.3 mg/L | yield of taxol [2, 5]: 4.6 mg/L | cell yield [2, 6]: 13.5 g/L | yield of baccatin III [2, 6]: 0.5 mg/L | yield of cephalomannine [2, 6]: 1.5 mg/L | yield of taxol [2, 6]: 5.5 mg/L | cell yield [2, 7]: 13.2 g/L | yield of baccatin III [2, 7]: 0.7 mg/L | yield of cephalomannine [2, 7]: 1.8 mg/L | yield of taxol [2, 7]: 6.9 mg/L | cell yield [2, 8]: 13.0 g/L | yield of baccatin III [2, 8]: 0.9 mg/L | yield of cephalomannine [2, 8]: 2.2 mg/L | yield of taxol [2, 8]: 14.8 mg/L | cell yield [2, 9]: 12.9 g/L | yield of baccatin III [2, 9]: 13.5 mg/L | yield of cephalomannine [2, 9]: 2.3 mg/L | yield of taxol [2, 9]: 22.5 mg/L | cell yield [2, 10]: 12.5 g/L | yield of baccatin III [2, 10]: 10.5 mg/L | yield of cephalomannine [2, 10]: 2.1 mg/L | yield of taxol [2, 10]: 15.6 mg/L | cell yield [2, 11]: 12.7 g/L | yield of baccatin III [2, 11]: 12.2 mg/L | yield of cephalomannine [2, 11]: 2.4 mg/L | yield of taxol [2, 11]: 16.5 mg/L | cell yield [2, 12]: 7.1 g/L | yield of baccatin III [2, 12]: 1.0 mg/L | yield of cephalomannine [2, 12]: 1.3 mg/L | yield of taxol [2, 12]: 4.0 mg/L | cell yield [2, 13]: 12.5 g/L | yield of baccatin III [2, 13]: 14.5 mg/L | yield of cephalomannine [2, 13]: 2.2 mg/L | yield of taxol [2, 13]: 21.1 mg/L | cell yield [2, 14]: 11.6 g/L | yield of baccatin III [2, 14]: 15.0 mg/L | yield of cephalomannine [2, 14]: 2.3 mg/L | yield of taxol [2, 14]: 10.6 mg/L | cell yield [2, 15]: 7.5 g/L | yield of baccatin III [2, 15]: 1.2 mg/L | yield of cephalomannine [2, 15]: 1.8 mg/L | yield of taxol [2, 15]: 3.9 mg/L | cell yield [3]: 12.2 g/L | yield of baccatin III [3]: 17.4 mg/L | yield of cephalomannine [3]: 3.1 mg/L | yield of taxol [3]: 28.3 mg/L | cell yield [4]: 9.5 g/L | yield of baccatin III [4]: 10.4 mg/L | yield of cephalomannine [4]: 0.5 mg/L | yield of taxol [4]: 5.4 mg/L

CC/C=C\C[C@H]1[C@@H](CC(=O)OC)CC[C@@H]1O [methyl cucurbate]
cell yield [1]: 11.0 g/L | yield of baccatin III [1]: 1.2 mg/L | yield of cephalomannine [1]: 0.3 mg/L | yield of taxol [1]: 1.3 mg/L | cell yield [2, 5]: 11.3 g/L | yield of baccatin III [2, 5]: 0.3 mg/L | yield of cephalomannine [2, 5]: 2.6 mg/L | yield of taxol [2, 5]: 4.3 mg/L | cell yield [2, 6]: 11.1 g/L | yield of baccatin III [2, 6]: 0.3 mg/L | yield of cephalomannine [2, 6]: 3.1 mg/L | yield of taxol [2, 6]: 5.4 mg/L | cell yield [2, 7]: 10.4 g/L | yield of baccatin III [2, 7]: 0.3 mg/L | yield of cephalomannine [2, 7]: 3.3 mg/L | yield of taxol [2, 7]: 6.7 mg/L | cell yield [2, 8]: 10.4 g/L | yield of baccatin III [2, 8]: 0.5 mg/L | yield of cephalomannine [2, 8]: 4.0 mg/L | yield of taxol [2, 8]: 11.3 mg/L | cell yield [2, 9]: 10.5 g/L | yield of baccatin III [2, 9]: 14.6 mg/L | yield of cephalomannine [2, 9]: 4.1 mg/L | yield of taxol [2, 9]: 18.2 mg/L | cell yield [2, 10]: 9.5 g/L | yield of baccatin III [2, 10]: 8.4 mg/L | yield of cephalomannine [2, 10]: 4.1 mg/L | yield of taxol [2, 10]: 16.8 mg/L | cell yield [2, 11]: 9.8 g/L | yield of baccatin III [2, 11]: 7.2 mg/L | yield of cephalomannine [2, 11]: 4.4 mg/L | yield of taxol [2, 11]: 15.7 mg/L | cell yield [2, 12]: 6.1 g/L | yield of baccatin III [2, 12]: 0.8 mg/L | yield of cephalomannine [2, 12]: 2.8 mg/L | yield of taxol [2, 12]: 3.9 mg/L | cell yield [2, 13]: 9.6 g/L | yield of baccatin III [2, 13]: 10.6 mg/L | yield of cephalomannine [2, 13]: 5.3 mg/L | yield of taxol [2, 13]: 17.7 mg/L | cell yield [2, 14]: 9.3 g/L | yield of baccatin III [2, 14]: 12.0 mg/L | yield of cephalomannine [2, 14]: 3.0 mg/L | yield of taxol [2, 14]: 13.1 mg/L | cell yield [2, 15]: 5.7 g/L | yield of baccatin III [2, 15]: 1.2 mg/L | yield of cephalomannine [2, 15]: 2.8 mg/L | yield of taxol [2, 15]: 4.2 mg/L | cell yield [3]: 9.7 g/L | yield of baccatin III [3]: 22.2 mg/L | yield of cephalomannine [3]: 3.8 mg/L | yield of taxol [3]: 29.7 mg/L | cell yield [4]: 12.3 g/L | yield of baccatin III [4]: 5.2 mg/L | yield of cephalomannine [4]: 0.2 mg/L | yield of taxol [4]: 3.9 mg/L
